For one experiment, the target named is T1, H^+ /K^+ -ATPase (Oryctolagus cuniculus, UniProt P27112).
T1 construct: The gastric mucous membrane was removed from rabbit; from tissue; host or cells: rabbit gastric mucosa, microsomal fraction (77,000 xg)
Kind of experiment: Inhibition of H+/K+-ATPase enzyme activity in vitro. The conditions noted are these: 5 min pre-incubation at 37° C., 4 mM ATP. Format: biochemical, rabbit. The protocol: The gastric mucous membrane was removed from rabbit and then centrifuged with 77,000 xg using a ultracentrifuge to separate the microsomal fraction which was used as the source of H^+ /K^+ -ATPase enzyme for this test. 60 μg of H^+ /K^+ -ATPase was pre-incubated with the sample (the compound according to the present invention) for 5 minutes at 37° C. and then 4 mM ATP as the substrate and 4 mM Mg^++, 20 mM K^+ as the cofactor were added thereto. Then, the amount of inorganic phosphorus thus produced was determined using a spectrophotometer at 660 nm and converted into the amount of protein according to Lowry method. […]

For the next experiment, the system named is gastric juice secretion. As to the kind of experiment: Inhibition of gastric juice secretion, Shay method. Format: in vivo, SD male rats. The conditions noted are these: for Gastric juice volume / Inhibition rate, gastric juice secretion: intraduodenal; for Inhibition rate, gastric juice secretion: vs normal group. The protocol:
(§1) The specific test methods are as follows.
(§2) SD male rats (200±20 g) were fasted for 24 hours, except for water, and then anesthesized with ether. The abdomen of rats was incised and then the pylorus was ligated. The test compounds were suspended or dissolved in […] (carboxymethylcellulose) and injected into duodenum. After the abdomen was suctured, the rats were allowed to stand for 5 hours and then sacrificed with ether. The stomach was removed from rats and the gastric juices were collected. The gastric juice was centrifuged with 10,000×g for 10 minutes at 4° C. to remove the precipitate. The amount of gastric juice and acidity were determined using pH 7.0 end point assay with 0.02N NaOH and then the total acid output was calculated.

The subject of the next experiment is acidity. As to the kind of experiment: Inhibition of acidity (total acid output), Shay method. Format: in vivo, SD male rats. The conditions noted are these: for Volume (inhibition of acidity) / Inhibition rate, acidity: intraduodenal; for Inhibition rate, acidity: vs normal group. The protocol:
as §1, §2

Setting [1] is: rabbit gastric microsomal H+/K+-ATPase, read-out: IC50.

Each structure is given as a SMILES string. Counter-ions that a name gives are not always drawn. Like-named read-outs stand apart in the source and are kept apart here.

T1 sequence (P27112 2-1035 limits assumed): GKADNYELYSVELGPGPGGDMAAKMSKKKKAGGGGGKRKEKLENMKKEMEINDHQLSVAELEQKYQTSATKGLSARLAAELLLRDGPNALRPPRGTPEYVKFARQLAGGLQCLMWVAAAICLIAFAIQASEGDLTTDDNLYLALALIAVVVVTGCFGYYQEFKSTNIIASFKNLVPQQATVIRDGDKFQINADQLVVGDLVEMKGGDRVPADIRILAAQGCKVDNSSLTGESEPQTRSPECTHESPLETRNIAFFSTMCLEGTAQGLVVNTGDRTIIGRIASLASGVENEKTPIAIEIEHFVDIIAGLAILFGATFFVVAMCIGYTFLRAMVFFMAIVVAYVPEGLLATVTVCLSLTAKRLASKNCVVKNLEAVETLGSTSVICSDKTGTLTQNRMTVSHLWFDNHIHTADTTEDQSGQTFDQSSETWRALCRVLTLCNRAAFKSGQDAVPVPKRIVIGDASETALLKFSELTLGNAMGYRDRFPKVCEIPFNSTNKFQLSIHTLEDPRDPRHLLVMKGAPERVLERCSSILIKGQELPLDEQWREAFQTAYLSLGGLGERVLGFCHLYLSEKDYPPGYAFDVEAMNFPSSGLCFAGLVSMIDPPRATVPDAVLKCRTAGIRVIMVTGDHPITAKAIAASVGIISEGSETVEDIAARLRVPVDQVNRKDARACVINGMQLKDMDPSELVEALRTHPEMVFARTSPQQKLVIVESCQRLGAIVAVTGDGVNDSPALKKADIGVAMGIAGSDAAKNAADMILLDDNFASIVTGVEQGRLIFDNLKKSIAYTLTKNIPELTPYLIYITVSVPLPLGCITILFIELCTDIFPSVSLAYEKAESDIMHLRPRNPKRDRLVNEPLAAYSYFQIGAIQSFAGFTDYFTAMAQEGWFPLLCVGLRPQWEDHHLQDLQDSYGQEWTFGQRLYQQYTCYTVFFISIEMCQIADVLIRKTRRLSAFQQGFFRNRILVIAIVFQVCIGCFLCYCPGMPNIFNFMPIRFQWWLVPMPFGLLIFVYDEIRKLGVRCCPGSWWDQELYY
T1 sequence (P18597 whole entry partner): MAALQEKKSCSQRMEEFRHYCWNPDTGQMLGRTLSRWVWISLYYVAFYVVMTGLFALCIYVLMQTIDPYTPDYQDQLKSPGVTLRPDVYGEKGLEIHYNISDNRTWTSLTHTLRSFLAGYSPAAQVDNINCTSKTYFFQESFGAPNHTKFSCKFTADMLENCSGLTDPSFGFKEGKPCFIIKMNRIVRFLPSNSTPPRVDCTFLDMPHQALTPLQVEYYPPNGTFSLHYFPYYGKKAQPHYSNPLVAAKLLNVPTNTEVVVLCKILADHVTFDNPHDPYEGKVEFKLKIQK

With `Cc1c(OCC(F)(F)F)ccnc1C[S+]([O-])c1nc2cc(-n3c(C)ccc3C)c(F)cc2[nH]1` (stereo not drawn) [Compound 23], on H^+ /K^+ -ATPase (setting [1]), the IC50 came to 320 µM.
For the molecule `Cc1cnc(C[S+]([O-])c2nc3cc(-n4c(C)ccc4C)c(F)cc3[nH]2)c(C)c1OCC(F)(F)F` (stereo not drawn) [Compound 22], the IC50 at H^+ /K^+ -ATPase (setting [1]) came to 390 µM.
With `COc1ccnc(C[S+]([O-])c2nc3cc(-n4c(C)ccc4C)c(F)cc3[nH]2)c1` (stereo not drawn) [Compound 20], the IC50 at H^+ /K^+ -ATPase (setting [1]) was 210 µM. Besides, in the experiment on gastric juice secretion (10 mg/kg, rat, 5 h), the Gastric juice volume is 1.41 ± 0.16 ml/100 g BW and the “Inhibition rate, gastric juice secretion” value is on record as 53.62%. Further, in the experiment on gastric juice secretion (30 mg/kg, rat, 5 h), the Gastric juice volume was 1.06 ± 0.10 ml/100 g BW and the “Inhibition rate, gastric juice secretion” value is 65.13%. For the same molecule, in the experiment with acidity (10 mg/kg, rat, 5 h), the “Volume (inhibition of acidity)” value turned out to be 18.41 ± 2.27 μEq/hr and the “Inhibition rate, acidity” value was 74.23%. In addition, in the experiment on acidity (30 mg/kg, rat, 5 h), the “Volume (inhibition of acidity)” value worked out at 11.31 ± 1.91 μEq/hr and the “Inhibition rate, acidity” value stood at 84.17%.
With `CCOCCOc1ccnc(C[S+]([O-])c2nc3cc(-n4cccc4)c(F)cc3[nH]2)c1C` (stereo not drawn) [Compound 6, 2-[[(4-(2-ethoxyethoxy)-3-methyl)-2-pyridinyl]methylsulfinyl]-5-(1H-pyrrol-1-yl)-6-fluoro-1H-benzimidazole], the IC50 at H^+ /K^+ -ATPase (setting [1]) came out at 28 µM.
For `Cc1c(OCC(F)(F)C(F)(F)F)ccnc1C[S+]([O-])c1nc2cc(-n3cccc3)c(F)cc2[nH]1` (stereo not drawn) [Compound 12], the IC50 on H^+ /K^+ -ATPase (setting [1]) is 150 µM.
In the case of `Cc1cnc(C[S+]([O-])c2nc3cc(-n4c(C)ccc4C)c(F)cc3[nH]2)cc1C` (stereo not drawn) [Compound 18], the IC50 at H^+ /K^+ -ATPase (setting [1]) turned out to be 400 µM.
As for `COc1ccnc(C[S+]([O-])c2nc3cc(-n4cccc4)c(F)cc3[nH]2)c1OC` (stereo not drawn) [Compound 7], the IC50 on H^+ /K^+ -ATPase (setting [1]) was 290 µM.
In the case of `COc1ccnc(C[S+]([O-])c2nc3cc(-n4cccc4)c(F)cc3[nH]2)c1` (stereo not drawn) [Compound 8], the IC50 at H^+ /K^+ -ATPase (setting [1]) was determined as 1900 µM.
As for `COc1ccnc(C[S+]([O-])c2nc3cc(-n4c(C)ccc4C)c(F)cc3[nH]2)c1OC` (stereo not drawn) [Compound 19], at H^+ /K^+ -ATPase (setting [1]), the IC50 turned out to be 8100 µM.
Take `COc1ccnc(C[S+]([O-])c2nc3cc(-n4c(C)ccc4C)c(F)cc3[nH]2)c1C` (stereo not drawn) [Compound 16, 2-[[(4-methoxy-3-methyl)-2-pyridinyl]methylsulfinyl]-5-(1H-2,5-dimethylpyrrol-1-yl)-6-fluoro-1H-benzimidazole]: the IC50 at H^+ /K^+ -ATPase (setting [1]) was determined as 12 µM. Also, the Gastric juice volume in the experiment on gastric juice secretion (3 mg/kg, rat, 5 h) turned out to be 1.92 ± 0.14 ml/100 g BW; in the experiment with gastric juice secretion (10 mg/kg, rat, 5 h), 1.35 ± 0.15 ml/100 g BW; in the experiment on gastric juice secretion (30 mg/kg, rat, 5 h), 0.98 ± 0.19 ml/100 g BW. Also, the “Inhibition rate, gastric juice secretion” value in the experiment on gastric juice secretion (3 mg/kg, rat, 5 h) worked out at 44.35%; with gastric juice secretion (10 mg/kg, rat, 5 h), 60.87%; in the experiment with gastric juice secretion (30 mg/kg, rat, 5 h), 71.59%. In addition, the ED50 is 4.53 mg/kg with gastric juice secretion (Rattus norvegicus, 5 h) and 1.85 mg/kg with acidity (Rattus norvegicus, 5 h). Also, the “Inhibition of gastric juice secretion (in words)” value with gastric juice secretion (rat) was “very strong inhibition of gastric juice secretion”. Also, the “Volume (inhibition of acidity)” value is on record as 25.65 ± 6.86 μEq/hr with acidity (3 mg/kg, rat, 5 h); 10.08 ± 3.71 μEq/hr with acidity (10 mg/kg, rat, 5 h); 1.75 ± 1.06 μEq/hr in the experiment with acidity (30 mg/kg, rat, 5 h). In addition, the “Inhibition rate, acidity” value is listed as 64.68% with acidity (3 mg/kg, rat, 5 h); 86.12% with acidity (10 mg/kg, rat, 5 h); 97.59% with acidity (30 mg/kg, rat, 5 h). In addition, the “Acidity lowering effect (in words)” value with acidity (rat) is listed as “high acidity lowering effect”.
Regarding `COc1cc(C[S+]([O-])c2nc3cc(-n4cccc4)c(F)cc3[nH]2)ncc1C` (stereo not drawn) [Compound 3], the IC50 on H^+ /K^+ -ATPase (setting [1]) worked out at 2000 µM.
With `COc1ccnc(CSc2nc3cc(-n4cccc4)c(F)cc3[nH]2)c1C` [Compound 1, 2-[[(4-methoxy-3-methyl)-2-pyridinyl]methylthio]-5-(1H-pyrrol-1-yl)-6-fluoro-1H-benzimidazole], the IC50 on H^+ /K^+ -ATPase (setting [1]) was 420 µM.
Take `[O-][S+](Cc1ccccn1)c1nc2cc(-n3cccc3)c(F)cc2[nH]1` (stereo not drawn) [Compound 9]: the IC50 at H^+ /K^+ -ATPase (setting [1]) is 4700 µM.
Consider `COc1cc(C[S+]([O-])c2nc3cc(-n4c(C)ccc4C)c(F)cc3[nH]2)ncc1C` (stereo not drawn) [Compound 17], for which the IC50 at H^+ /K^+ -ATPase (setting [1]) was determined as 22 µM.
For `COc1c(C)cnc(C[S+]([O-])c2nc3cc(-n4cccc4)c(F)cc3[nH]2)c1C` (stereo not drawn) [Compound 4], on H^+ /K^+ -ATPase (setting [1]), the IC50 was found to be 430 µM.
With `COc1c(C)cnc(C[S+]([O-])c2nc3cc(-n4c(C)ccc4C)c(F)cc3[nH]2)c1C` (stereo not drawn) [Compound 15], the IC50 on H^+ /K^+ -ATPase (setting [1]) was determined as 50 µM. Besides, the Gastric juice volume in the experiment with gastric juice secretion (10 mg/kg, rat, 5 h) was found to be 1.81 ± 0.19 ml/100 g BW; with gastric juice secretion (30 mg/kg, rat, 5 h), 1.46 ± 0.13 ml/100 g BW. In addition, the “Inhibition rate, gastric juice secretion” value came to 33.70% in the experiment on gastric juice secretion (10 mg/kg, rat, 5 h) and 46.52% in the experiment on gastric juice secretion (30 mg/kg, rat, 5 h). In addition, the “Volume (inhibition of acidity)” value with acidity (10 mg/kg, rat, 5 h) is reported as 26.61 ± 5.27 μEq/hr; in the experiment on acidity (30 mg/kg, rat, 5 h), 12.74 ± 1.80 μEq/hr. Also, the “Inhibition rate, acidity” value with acidity (10 mg/kg, rat, 5 h) is on record as 51.81%; in the experiment with acidity (30 mg/kg, rat, 5 h) it was 76.93%.
Take `Cc1c(OCC(F)(F)C(F)(F)F)ccnc1CS(=O)(=O)c1nc2cc(-n3cccc3)c(F)cc2[nH]1` [Compound 14]: the IC50 at H^+ /K^+ -ATPase (setting [1]) is 5300 µM.
For the molecule `COc1ccnc(C[S+]([O-])c2nc3cc(-n4c(C)ccc4C)c(F)cc3[nH]2)c1C` (stereo not drawn) [Compound 25], the IC50 at H^+ /K^+ -ATPase (setting [1]) was 5.9 µM.
Molecule `Cc1c(OCC(F)(F)C(F)(F)C(F)(F)F)ccnc1C[S+]([O-])c1nc2cc(-n3cccc3)c(F)cc2[nH]1` (stereo not drawn) [Compound 13] showed an IC50 against H^+ /K^+ -ATPase (IC50, rabbit gastric microsomal H+/K+-ATPase) of 470 µM.
With `Cc1ccc(C)n1-c1cc2nc([S+]([O-])Cc3ccccn3)[nH]c2cc1F` (stereo not drawn) [Compound 21], the half-maximal inhibitory concentration (IC50) on H^+ /K^+ -ATPase (setting [1]) stood at 7600 µM.
`COc1ccnc(C[S+]([O-])c2nc3cc(-n4cccc4)c(F)cc3[nH]2)c1C` (stereo not drawn) [Compound 24, 2-[[(4-methoxy-3-methyl)-2-pyridinyl]methylsulfinyl]-5-(1H-pyrrol-1-yl)-6-fluoro-1H-benzimidazole sodium salt]: the IC50 at H^+ /K^+ -ATPase (setting [1]) is 5.6 µM.
Regarding `Cc1cnc(C[S+]([O-])c2nc3cc(-n4cccc4)c(F)cc3[nH]2)c(C)c1OCC(F)(F)C(F)(F)F` (stereo not drawn) [Compound 11], the IC50 at H^+ /K^+ -ATPase (setting [1]) was 9300 µM.
On to `CCOc1ccnc(C[S+]([O-])c2nc3cc(-n4cccc4)c(F)cc3[nH]2)c1C` (stereo not drawn) [Compound 5], for which the IC50 on H^+ /K^+ -ATPase (setting [1]) was less than 40 µM. Besides, the Gastric juice volume in the experiment with gastric juice secretion (10 mg/kg, rat, 5 h) is given as 1.63 ± 0.04 ml/100 g BW; in the experiment on gastric juice secretion (30 mg/kg, rat, 5 h) it was 1.21 ± 0.10 ml/100 g BW. Besides, the “Inhibition rate, gastric juice secretion” value is given as 42.40% in the experiment with gastric juice secretion (10 mg/kg, rat, 5 h) and 57.24% with gastric juice secretion (30 mg/kg, rat, 5 h). Also, the “Volume (inhibition of acidity)” value in the experiment with acidity (10 mg/kg, rat, 5 h) is given as 21.85 ± 2.44 μEq/hr; in the experiment on acidity (30 mg/kg, rat, 5 h), 11.84 ± 4.00 μEq/hr. For the same molecule, the “Inhibition rate, acidity” value in the experiment with acidity (10 mg/kg, rat, 5 h) was determined as 66.78%; with acidity (30 mg/kg, rat, 5 h), 82.00%.

The IC50 is the concentration needed to halve the response being measured. One may read the ED50 as the midpoint of the dose-response relation. A lower ED50 goes with greater potency.
